Columns and labels:
[1] = Hydrogen peroxide production assay (TCEP/DTNB, 96-well) in presence of Cu(II); conditions: for effect of chelating agent on hydrogen peroxide production by Vitamin C and antipsychotics: FIG. 7
Description: To determine whether antipsychotics themselves could be the source of peroxidation in TD, we measured hydrogen peroxide formation in vitro using a novel 96-well assay developed specifically for that purpose. The production of hydrogen peroxide is assayed by a modification of a published method (Han, J. C. and Han, G. Y., Anal. Biochem. 220:5-10 (1994); Han, J., et al., Anal. Biochem. 234:107-109 (1996)). […] Antipsychotics (10 μM) were assayed for hydrogen peroxide formation in PBS (pH 7.4) in the presence of 10 μM Cu(II).
Ten μM of antipsychotics and 10 μM of Cu(II) were co-incubated with 100 μM of a H2O2-trapping reagent, Tris(2-Carboxyethyl)-Phosphine Hydrochloride (TCEP), in PBS (pH 7.4) at 37° C. for 1 hour.

rats = test: Rodent model of vacuous chewing (TD model); type: in vivo, rat; conditions: 24 weeks treatment, 12 weeks withdrawal, FIG. 12
Description: There are two major animal models of TD. The first is a primate model of antipsychotic-induced dyskinesia. Ten to thirty percents of Cebus or Maccaca monkeys will develop clinical dyskinesia after long-term antipsychotic treatment. The second is a rodent model of vacuous chewing. In the rodent model, when the animals are treated with antipsychotics, they develop vacuous chewing, whic phenomenological similarities to the orobuccofacial movement of TD. Only 30-60% of rats will develop vacuous chewing. The chewing movement is enhanced after the withdrawal of antipsychotic treatment. […] (FIG. 12.)

SOD and catalase = conditions: rats, chronic treatment; cited from earlier work
tardive dyskinesia = conditions: patients with TD; cited from earlier work

Cc1cc(-c2ccc(S(=O)(=O)O)cc2)c2ccc3c(-c4ccc(S(=O)(=O)O)cc4)cc(C)nc3c2n1 [bathocuproine disulfonate (BC), bathocuproine disulfonate]
effect of chelating agent on hydrogen peroxide production by Vitamin C and antipsychotics [1]: significantly attenuate the production of hydrogen peroxide

CN1CCN(C2=Nc3cc(Cl)ccc3Nc3ccccc32)CC1 [clozapine]
induction of vacuous chewing (rats): only induce vacuous chewing in a small portion of the animals

OCCN1CCN(CCCN2c3ccccc3Sc3ccc(C(F)(F)F)cc32)CC1 [fluphenazine]
dependence of hydrogen peroxide generation on copper concentration ([1]; FIG. 6): dependent on the concentration of copper | dependence of hydrogen peroxide generation on drug concentration ([1]; dose response, FIG. 5): concentration dependent | SOD and catalase activities in the nervous system (SOD and catalase): cause a decrease in SOD and catalase activities

NCCNCCNCCN [triethylenetetramine (TETA), triethylenetetramine]
effect of chelating agent on hydrogen peroxide production by Vitamin C and antipsychotics [1]: significantly attenuate the production of hydrogen peroxide

Vitamin E
effect on symptoms of TD (tardive dyskinesia): reverses the symptoms of TD
